What was measured:
AKSP CRC tumoroid line = experiment: 3D CRC tumoroid viability, AKSP model; format: cell-based, mice; details: at 5.0 μM, viability after 72 hours
Method: To model different stages of colorectal cancer (CRC), intestinal organoids were derived from genetically engineered mice with the following genotypes Apc^flx/flx (A) and Apc^flx/flx Kra^LSL-G12D Smad4^flx/flx (AKS) and transformed ex vivo by addition of 100 nM 4-OHT for 24 hours. Once the organoids acquired a spheroid morphology characteristic of CRC Tumoroids, trp53 was knocked out in AKS tumoroids using CRISPR-CAS9 technology to generate the AKSP line. CRC tumoroid lines as well as wild type intestinal organoids were seeded onto Matrigel in 96 well plates in triplicates 16 hours before being treated with the indicated compounds at a final concentration of 0.5 μM. 72 hours later, cell viability was assessed using Titerglo® assay. Results of 3D CRC organoid line data for pyrazolo- and pyrrolopyrimidine compounds at 0.5 μm were obtained (FIGS. 25A-G). […] In the AKSP model, at 5.0 μM, the top ten compounds were: APS-8-35-3, APS-8-35-4, APS-6-87, APS-9-3, AD80, APS-8-85-2, APS-8-51-3, APS-9-2, and APS-8-56-4.

RET (WT and M918T) = experiment: NanoBRET cell based target engagement assay; details: RET-Nluc in HEK 293T cells; for cellular IC50 against RET, ranking in words: pyrazolo- and pyrrolopyrimidine series
Method: Assays were completed in duplicate. […] FIG. 8D is a graph of the cell-based target engagement for the indicated compounds against wild-type and M918T RET. IC50 values were determined based on 8-point titration curves of free ligand. Competition assays were completed in technical triplicate against full-length human RET-Nluc expressed in 293T cells, complexed with an active-site fluorescent tracer.
In this assay, a bioluminescence resonance energy transfer (BRET) signal is generated between nanoLuciferase tagged RET (expressed in HEK 293T cells) and an active-site based fluorescent tracer. […] Using this assay, in vivo binding was determined for a series of compounds against mutant (M918T) and wild-type RET (FIG. 8D).

ptc>dRet^M955T flies = experiment: Fly rescue assay (Drosophila MTC model ptc>dRet^M955T); format: in vivo; details: compound in fly food; for rescue (percent viability of adult flies, adults/pupae×100): 13 d at 25° C., baseline viability 0%
Method: Kinase-mutated fly stocks were obtained from Bloomington Drosophila Stock Center (BDSC; Bloomington, IN). The active mutant form of Drosophila Ret (dRet^955T) carries an M955T mutation corresponding to the M918T mutation commonly reported for multiple endocrine neoplasia (MEN) type 2B patients12,14,16,34. The ptc-gal4, UAS-GFP;UAS-dRet^M955T/SM5tub-gal80-TM6B transgenic flies were prepared according to standard protocols and crossed with non-transgenic w-flies (BDSC) to generate ptc-gal4, UAS-GFP; UAS-dRet^M955T(ptc>dRet^M955T) flies for chemical screening.
All drugs were synthesized in-house. All compounds were dissolved in DMSO (Sigma-Aldrich; St. Louis, MO) and mixed with semi-defined fly medium (BDSC) to make drug food (0.1% final DMSO concentration). For drug screening, ptc>dRet^M955T embryos were raised until adulthood on drug food for 13 d at 25° C. The number of empty pupal cases (i.e., adults) ? that of total pupal cases (P) to determine % viability. Fly randomization was used throughout the assays.
In this model, compounds are assessed based on their ability to suppress oncogenic Ret^M955T-induced tumors, which can be quantified as ‘rescue’ from lethality. […] The baseline viability of ptc>Ret^1955T flies was calibrated to zero, which creates a high bar for rescue but also reduces false-positive hits. Hundreds of flies are tested per condition (typical n values are […] administered through fly food.

[1] = test system: HCC tumor organoids, SR (sorafenib resistant); experiment: 3D HCC tumor organoid viability, SR model; format: cell-based; details: 5.0 μM, viability three days post drug administration
Method: (§1) For assays in HCC tumor organoids, 96 well plates were first coated with a 50:50 solution of basal media:Matrigel ([…]), which polymerized for 15 minutes at 37° C. Tumor organoids were taken out of Matrigel, broken, and washed. Tumor organoids were seeded at 1,000 cells per well and were treated the following day with single doses of drugs in technical triplicate. Final DMSO concentrations were kept below 0.5%. Cell viability was measured three days post drug administration with either luminescence from CellTiter-Glo or absorbance at 560 and 590 nm from resazurin. Viability data was analyzed by normalizing individual drug-treated well values to DMSO-treated wells (BC=B-Catenin; SR=sorafenib resistant). Results of 3D HCC cell line data for pyrazolo- and pyrrolopyrimidine compounds at 0.5 μm (FIGS. 22A-F), 0.05 μm (FIGS. 23A-F), and 5.0 μm (FIGS. 24A-F) were obtained. […] In the BC model, at 5.0 μM, the top ten compounds were: APS-8-100-4, APS-8-52-3, APS-8-51-4, APS-7-25-2, APS-8-100-3, APS-8-51-3, APS-8-50-4, APS-8-52-4, and APS-7-38. In the SR model, at 5.0 μM, the top ten compounds were: APS-8-51-3, APS-8-50-4, APS-8-51-4, APS-8-52-3, APS-8-50-3, APS-7-52-2, APS-8-52-4, APS-7-52-1, and APS-8-100-4.

[2] = test system: HCC tumor organoids, BC (B-Catenin); experiment: 3D HCC tumor organoid viability, BC model; format: cell-based; details: 5.0 μM, viability three days post drug administration
Method: as §1

[3] = target: T1, wild-type RET kinase domain (Homo sapiens, UniProt P07949); experiment: Wild-type RET Kd, bead based competition assay (KINOMEscan, DiscoverX); format: binding; details: recombinant human wild-type RET kinase domain, average of two replicates; read-out: Kd towards wild-type RET
T1 construct: determined against recombinant-human, wild-type RET kinase domain; phage display fusion (kinase expressed on phage); purchased DiscoverX (Fremont, CA); host or cells: phage
T1 sequence (P07949 724-1016 limits assumed): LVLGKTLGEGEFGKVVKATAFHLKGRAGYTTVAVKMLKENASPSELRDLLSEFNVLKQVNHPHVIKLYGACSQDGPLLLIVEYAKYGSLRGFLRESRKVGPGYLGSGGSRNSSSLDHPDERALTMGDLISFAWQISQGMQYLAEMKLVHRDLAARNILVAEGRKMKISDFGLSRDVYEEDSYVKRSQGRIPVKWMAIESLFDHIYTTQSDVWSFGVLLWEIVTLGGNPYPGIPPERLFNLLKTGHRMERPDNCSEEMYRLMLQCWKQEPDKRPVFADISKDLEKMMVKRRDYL
Method: Wild-type RET Kd values were determined by DiscoverX (Fremont, CA) using a bead based competition assay (KINOMEscan). In brief, kinases are expressed on phage and immobilized on beads via active site-directed ligands. Test compounds are premixed with kinases and assayed for the ability to compete for immobilized ligands. Binding constants are calculated with a standard dose-response curve and the Hill equation, with Hill slope set to −1. […] Kd values are the average of two experimental replicates.
To assess if the differences in activity between R^F- and R^H-analogs were related to alterations in target engagement, representative analogs for binding on wild-type RET were compared. For this KD values of compounds 40 (para-C2F5) and 50 (para-C2H5) were determined against recombinant-human, wild-type RET kinase domain.

[4] = test system: panel of 468 purified human kinases; experiment: In vitro kinase percent inhibition, panel of 468 kinases (DiscoverX); format: binding; details: 1 μM; for binding profile / selectivity across the kinome, in words: panel of 468 kinases
Method: Compounds were assayed against a panel of 468 purified human kinases (DiscoverX) to measure percentage inhibition values and derive kinome profiles (FIGS. 3B-3C). All compounds were screened at 1 μM, using two experimental replicates to determine percent inhibition values. Detailed procedures for kinase reactions and assay formats are described at http://www.discoverx.com. Raw data sets for individual compounds were filtered based on the variance of experimental replicates (cutoff=average variance+standard deviation).

SMILES: CC(C)n1cc(-c2ccc(NC(=O)Nc3cc(C(F)(F)F)ccc3F)cc2)c2c(N)ncnc21 [APS-6-87, 1-(4-(4-Amino-7-isopropyl-7H-pyrrolo[2,3-d]pyrimidin-5-yl)phenyl)-3-(2-fluoro-5-(trifluoromethyl)phenyl)urea]
- ranking by inhibition of cell proliferation, AKSP model (AKSP CRC tumoroid line): top ten

SMILES: CC(C)n1nc(-c2ccc(NC(=O)Nc3cc(C(F)(C(F)(F)F)C(F)(F)C(F)(F)F)ccc3F)cc2)c2c(N)ncnc21 (stereo not drawn) [APS-8-35-3, 1-(4-(4-Amino-1-isopropyl-1H-pyrazolo[3,4-d]pyrimidin-3-yl)phenyl)-3-(2-fluoro-5-(perfluorobutan-2-yl)phenyl)urea]
- cellular IC50 against RET, ranking in words (RET (WT and M918T)): highest IC50 values
- ranking by inhibition of cell proliferation, AKSP model (AKSP CRC tumoroid line): top ten

SMILES: CC(C)n1cc(-c2ccc(NC(=O)Nc3cccc(C(F)(F)F)c3)cc2)c2c(N)ncnc21 [APS-9-2, 1-(4-(4-Amino-7-isopropyl-7H-pyrrolo[2,3-d]pyrimidin-5-yl)phenyl)-3-(3-(trifluoromethyl)phenyl)urea]
- ranking by inhibition of cell proliferation, AKSP model (AKSP CRC tumoroid line): top ten

SMILES: CC(C)n1cc(-c2ccc(NC(=O)Nc3ccc(C(F)(F)C(F)(F)C(F)(F)F)cc3)cc2)c2c(N)ncnc21.O=C(O)C(F)(F)F [APS-8-51-4, 1-(4-(4-Amino-7-isopropyl-7H-pyrrolo[2,3-d]pyrimidin-5-yl)phenyl)-3-(4-(perfluoropropyl)phenyl)urea 2,2,2-trifluoroacetate]
- rescue activity in the fly model, in words (ptc>dRet^M955T flies): exceptional in vivo activity
- rescue (percent viability of adult flies, adults/pupae×100) (ptc>dRet^M955T flies): 100%
- ranking by inhibition of cell proliferation, SR model [1]: top ten
- ranking by inhibition of cell proliferation, BC model [2]: top ten

SMILES: CNC(=O)c1cc(Oc2ccc(NC(=O)Nc3ccc(C(F)(F)C(F)(F)C(F)(F)C(F)(F)F)cc3)c(F)c2)ccn1 [APS-8-52-2]
- Kd [3]: 100 nM

SMILES: CC(C)n1nc(-c2ccc(NC(=O)Nc3ccc(C(F)(F)C(F)(F)C(F)(F)F)cc3)cc2)c2c(N)ncnc21 [APS-8-51-3, 1-(4-(4-Amino-1-isopropyl-1H-pyrazolo[3,4-d]pyrimidin-3-yl)phenyl)-3-(4-(perfluoropropyl)phenyl)urea]
- ranking by inhibition of cell proliferation, SR model [1]: top ten
- ranking by inhibition of cell proliferation, BC model [2]: top ten
- ranking by inhibition of cell proliferation, AKSP model (AKSP CRC tumoroid line): top ten

SMILES: CC(C)n1cc(-c2ccc(NC(=O)Nc3cccc(C(F)(C(F)(F)F)C(F)(F)C(F)(F)F)c3)cc2)c2c(N)ncnc21 (stereo not drawn) [APS-8-56-4, 1-(4-(4-Amino-7-isopropyl-7H-pyrrolo[2,3-d]pyrimidin-5-yl)phenyl)-3-(3-(perfluorobutan-2-yl)phenyl)urea]
- ranking by inhibition of cell proliferation, AKSP model (AKSP CRC tumoroid line): top ten

SMILES: CNC(=O)c1cc(Oc2ccc(NC(=O)Nc3ccc(C(F)(F)F)cc3)c(F)c2)ccn1 [APS-4-9-8]
- Kd [3]: 2.8 nM
- rescue activity in the fly model, in words (ptc>dRet^M955T flies): no fly rescue
- rescue (percent viability of adult flies, adults/pupae×100) (ptc>dRet^M955T flies): 0%
- binding to wild-type RET and RET^M918T, in words ([4]; kinase panel): strong binding to wild-type and mutant RET^M918T
- binding profile / selectivity across the kinome, in words [4]: strong binding to a large group of kinases
- binding profile / selectivity across the kinome, in words ([4]; listed as 4-9-8): low overall selectivity

SMILES: CC(C)n1cc(-c2ccc(NC(=O)Nc3cc(C(F)(C(F)(F)F)C(F)(F)C(F)(F)F)ccc3F)cc2)c2c(N)ncnc21 (stereo not drawn) [APS-8-35-4, 1-(4-(4-Amino-7-isopropyl-7H-pyrrolo[2,3-d]pyrimidin-5-yl)phenyl)-3-(2-fluoro-5-(perfluorobutan-2-yl)phenyl)urea 2,2,2-trifluoroacetate]
- ranking by inhibition of cell proliferation, AKSP model (AKSP CRC tumoroid line): top ten

SMILES: CC(C)n1nc(-c2ccc(NC(=O)Nc3cc(C(F)(F)F)ccc3F)cc2)c2c(N)ncnc21 [AD80, 1-(4-(4-amino-1-isopropyl-1H-pyrazolo[3,4-d]pyrimidin-3-yl)phenyl)-3-(2-fluoro-5-(trifluoromethyl)phenyl)urea, reference compound]
- rescue (percent viability of adult flies, adults/pupae×100) (ptc>dRet^M955T flies): 80%
- cellular IC50 wild-type RET versus M918T mutant, in words (RET (WT and M918T)): slightly lower IC50 value for wild-type RET over mutant
- ranking by inhibition of cell proliferation, AKSP model (AKSP CRC tumoroid line): top ten

SMILES: CC(C)n1cc(-c2ccc(NC(=O)Nc3ccc(C(F)(F)F)cc3)cc2)c2c(N)ncnc21 [APS-8-85-2, 1-(4-(4-Amino-7-isopropyl-7H-pyrrolo[2,3-d]pyrimidin-5-yl)phenyl)-3-(4-(trifluoromethyl)phenyl)urea]
- ranking by inhibition of cell proliferation, AKSP model (AKSP CRC tumoroid line): top ten

SMILES: CC(C)n1cc(-c2ccc(NC(=O)Nc3ccc(C(F)(F)C(F)(F)F)cc3)cc2)c2c(N)ncnc21 [APS-8-100-4, 1-(4-(4-Amino-7-isopropyl-7H-pyrrolo[2,3-d]pyrimidin-5-yl)phenyl)-3-(4-(perfluoroethyl)phenyl)urea]
- rescue activity in the fly model, in words (ptc>dRet^M955T flies): exceptional in vivo activity
- rescue (percent viability of adult flies, adults/pupae×100) (ptc>dRet^M955T flies): 100%
- ranking by inhibition of cell proliferation, SR model [1]: top ten
- ranking by inhibition of cell proliferation, BC model [2]: top ten
- cellular IC50 against RET, ranking in words (RET (WT and M918T)): lowest IC50 values among the para-substituted compounds tested

SMILES: CC(C)n1cc(-c2ccc(NC(=O)Nc3cccc(C(F)(F)C(F)(F)F)c3)cc2)c2c(N)ncnc21 [APS-9-3, 1-(4-(4-Amino-7-isopropyl-7H-pyrrolo[2,3-d]pyrimidin-5-yl)phenyl)-3-(3-(perfluoroethyl)phenyl)urea 2,2,2-trifluoroacetate]
- ranking by inhibition of cell proliferation, AKSP model (AKSP CRC tumoroid line): top ten

Source: patent publication US20240287081A1, “PERFLUOROALKANE SUBSTITUTED PYRAZOLO[3,4-D]PYRIMIDIN AND PYRROLO[2,3-D]PYRIMIDIN COMPOUNDS AND USES THEREOF” (ICAHN SCHOOL OF MEDICINE AT MOUNT SINAI, priority 2021, published 2024)
